Results reported in patent publication US20120029187A1, “HALOALKYLSULFONANILIDE DERIVATIVE” (Nissan Chemical Industries, Ltd., priority 2009, published 2012).

What was measured:
Assay type in all cases: in vivo
barnyardgrass [1] = test: Test Example 1: herbicidal effects in preemergence treatment under submerged conditions; settings: dose 2.52 g/a
Method in brief: (§1)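 Alluvial soil flooded to 4 cm depth; barnyardgrass, bulrush and ducksalad sown and 2.5-leaf rice seedlings transplanted. Same day, water-diluted emulsifiable concentrates applied to the water surface at set doses (g/a). Kept at 25–30 °C in greenhouse; effects scored 0–5 by mortality after three weeks.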

ducksalad [2] = test: as above; settings: dose 2.52 g/a
Method in brief: as §1

bulrush [3] = test: as above; settings: dose 2.52 g/a
Method in brief: as §1

Italian ryegrass [4] = test: Test Example 3: herbicidal effects in soil treatment
Method in brief: (§2)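 Seeds were sown in sterilized diluvial soil and covered with about 1.5 cm of soil. Compounds, formulated as emulsifiable concentrates and diluted with water, were sprayed evenly over the soil surface at set doses in g/a. Herbicidal effect was scored on a rating scale three weeks later.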

barnyardgrass [5] = test: as above
Method in brief: as §2

velvetleaf [6] = test: as above
Method in brief: as §2

common lambsquater [7] = test: as above
Method in brief: as §2

giant foxtail [8] = test: as above
Method in brief: as §2

common chickweed [9] = test: as above; settings: dose 6.3 g/a
Method in brief: as §2

common ragweed [10] = test: as above
Method in brief: as §2

large crabgrass [11] = test: as above
Method in brief: as §2

wild oat [12] = test: as above
Method in brief: as §2

redroot pigweed [13] = test: as above
Method in brief: as §2

posumbu knotweed [14] = test: as above
Method in brief: as §2

beadstraw [15] = test: as above
Method in brief: as §2

water foxtail [16] = test: as above
Method in brief: as §2

Italian ryegrass [17] = test: Test Example 4: herbicidal effect in foliage treatment; settings: three weeks after application
Method in brief: (§3)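 Doses are given in grams per are of applied compound, sprayed as water-diluted emulsifiable concentrate onto foliage of 14-day-old plants grown at 25 to 30° C. Herbicidal activity was assessed visually on a rating scale after three weeks.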

barnyardgrass [18] = test: as above; settings: three weeks after application
Method in brief: as §3

velvetleaf [19] = test: as above; settings: three weeks after application
Method in brief: as §3

common lambsquater [20] = test: as above; settings: three weeks after application
Method in brief: as §3

giant foxtail [21] = test: as above; settings: three weeks after application
Method in brief: as §3

common chickweed [22] = test: as above; settings: three weeks after application
Method in brief: as §3

common ragweed [23] = test: as above; settings: three weeks after application
Method in brief: as §3

large crabgrass [24] = test: as above; settings: three weeks after application
Method in brief: as §3

wild oat [25] = test: as above; settings: three weeks after application
Method in brief: as §3

redroot pigweed [26] = test: as above; settings: three weeks after application
Method in brief: as §3

posumbu knotweed [27] = test: as above; settings: three weeks after application
Method in brief: as §3

beadstraw [28] = test: as above; settings: three weeks after application
Method in brief: as §3

water foxtail [29] = test: as above; settings: three weeks after application
Method in brief: as §3

transplanted rice = test: Test Example 1: preemergence treatment under submerged conditions, effect on crop; settings: dose 2.52 g/a
Method in brief: as §1

ducksalad [30] = test: Test Example 2: herbicidal effects during the vegetation period under submerged conditions; settings: treatment during the vegetation period under submerged conditions; dose 2.52 g/a
Method in brief: (§4)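 Barnyardgrass, bulrush and ducksalad were co-sown in alluvial soil flooded to 4 cm and grown in a greenhouse at 25 to 30° C. At the 1- or 2-leaf stage, water-diluted emulsifiable concentrates went onto the water surface at set doses (g/a). Herbicidal effect was scored three weeks later on a graded scale.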

bulrush [31] = test: as above; settings: treatment during the vegetation period under submerged conditions; dose 2.52 g/a
Method in brief: as §4

barnyardgrass [32] = test: as above; settings: treatment during the vegetation period under submerged conditions; dose 2.52 g/a
Method in brief: as §4

## CCOC(=O)N(c1ccccc1CN1CCSCC1=O)S(=O)(=O)C(F)(F)F [Compound I-18, 4-[2-(N-ethoxycarbonyl-N-trifluoromethanesulfonyl)aminobenzyl]-1,4-thiazinan-3-one]
Barnyardgrass [1]
  A: barnyardgrass, herbicidal effect (evaluation scale 0-5): 5 (mortality of 90% or above (nearly complete death))
Ducksalad [2]
  C: ducksalad, herbicidal effect (evaluation scale 0-5): 5 (mortality of 90% or above (nearly complete death))
Bulrush [3]
  B: bulrush, herbicidal effect (evaluation scale 0-5): 5 (mortality of 90% or above (nearly complete death))
Italian ryegrass [4]; dose 6.3 g/a
  H: Italian ryegrass, herbicidal effect (evaluation scale 0-5): 4 (mortality of at least 70% and less than 90%)
Barnyardgrass [5]; dose 6.3 g/a
  A: barnyardgrass, herbicidal effect (evaluation scale 0-5): 5 (mortality of 90% or above (nearly complete death))
Velvetleaf [6]; dose 6.3 g/a
  I: velvetleaf, herbicidal effect (evaluation scale 0-5): 1 (mortality of at least 5% and less than 20%)
Common lambsquater [7]; dose 6.3 g/a
  L: common lambsquater, herbicidal effect (evaluation scale 0-5): 5 (mortality of 90% or above (nearly complete death))
Giant foxtail [8]; dose 6.3 g/a
  E: giant foxtail, herbicidal effect (evaluation scale 0-5): 5 (mortality of 90% or above (nearly complete death))
Common chickweed [9]
  N: common chickweed, herbicidal effect (evaluation scale 0-5): 4 (mortality of at least 70% and less than 90%)
Common ragweed [10]; dose 6.3 g/a
  J: common ragweed, herbicidal effect (evaluation scale 0-5): 4 (mortality of at least 70% and less than 90%)
Large crabgrass [11]; dose 6.3 g/a
  D: large crabgrass, herbicidal effect (evaluation scale 0-5): 4 (mortality of at least 70% and less than 90%)
Wild oat [12]; dose 6.3 g/a
  F: wild oat, herbicidal effect (evaluation scale 0-5): 0 (mortality of less than 5% (almost ineffective))
Redroot pigweed [13]; dose 6.3 g/a
  K: redroot pigweed, herbicidal effect (evaluation scale 0-5): 4 (mortality of at least 70% and less than 90%)
Posumbu knotweed [14]; dose 6.3 g/a
  M: posumbu knotweed, herbicidal effect (evaluation scale 0-5): 3 (mortality of at least 40% and less than 70%)
Beadstraw [15]; dose 6.3 g/a
  O: beadstraw, herbicidal effect (evaluation scale 0-5): 3 (mortality of at least 40% and less than 70%)
Water foxtail [16]; dose 6.3 g/a
  G: water foxtail, herbicidal effect (evaluation scale 0-5): 5 (mortality of 90% or above (nearly complete death))
Italian ryegrass [17]; dose 6.3 g/a
  H: Italian ryegrass, herbicidal effect: 4 (mortality of at least 70% and less than 90%)
Barnyardgrass [18]; dose 6.3 g/a
  A: barnyardgrass, herbicidal effect: 5 (mortality of 90% or above (nearly complete death))
Velvetleaf [19]; dose 6.3 g/a
  I: velvetleaf, herbicidal effect: 4 (mortality of at least 70% and less than 90%)
Common lambsquater [20]; dose 6.3 g/a
  L: common lambsquater, herbicidal effect: 4 (mortality of at least 70% and less than 90%)
Giant foxtail [21]; dose 6.3 g/a
  E: giant foxtail, herbicidal effect: 4 (mortality of at least 70% and less than 90%)
Common chickweed [22]; dose 6.3 g/a
  N: common chickweed, herbicidal effect: 4 (mortality of at least 70% and less than 90%)
Common ragweed [23]; dose 6.3 g/a
  J: common ragweed, herbicidal effect: 3 (mortality of at least 40% and less than 70%)
Large crabgrass [24]; dose 6.3 g/a
  D: large crabgrass, herbicidal effect: 4 (mortality of at least 70% and less than 90%)
Wild oat [25]; dose 6.3 g/a
  F: wild oat, herbicidal effect: 3 (mortality of at least 40% and less than 70%)
Redroot pigweed [26]; dose 6.3 g/a
  K: redroot pigweed, herbicidal effect: 4 (mortality of at least 70% and less than 90%)
Posumbu knotweed [27]; dose 6.3 g/a
  M: posumbu knotweed, herbicidal effect: 3 (mortality of at least 40% and less than 70%)
Beadstraw [28]; dose 6.3 g/a
  O: beadstraw, herbicidal effect: 4 (mortality of at least 70% and less than 90%)
Water foxtail [29]; dose 6.3 g/a
  G: water foxtail, herbicidal effect: 5 (mortality of 90% or above (nearly complete death))
Transplanted rice
  a: transplanted rice, effect on crop (evaluation scale 0-5): 0 (mortality of less than 5% (almost ineffective))
Ducksalad [30]
  C: ducksalad, herbicidal effect (evaluation scale 0-5): 4 (mortality of at least 70% and less than 90%)
Bulrush [31]
  B: bulrush, herbicidal effect (evaluation scale 0-5): 5 (mortality of 90% or above (nearly complete death))

## CC(C)COC(=O)N(c1ccccc1CN1COC(C(F)(F)F)CC1=O)S(=O)(=O)C(F)(F)F (stereo not shown) [II-16]
Barnyardgrass [1]
  A: barnyardgrass, herbicidal effect (evaluation scale 0-5): 5 (mortality of 90% or above (nearly complete death))
Ducksalad [2]
  C: ducksalad, herbicidal effect (evaluation scale 0-5): 5 (mortality of 90% or above (nearly complete death))
Bulrush [3]
  B: bulrush, herbicidal effect (evaluation scale 0-5): 5 (mortality of 90% or above (nearly complete death))
Italian ryegrass [4]; dose 3.2 g/a
  H: Italian ryegrass, herbicidal effect (evaluation scale 0-5): 0 (mortality of less than 5% (almost ineffective))
Barnyardgrass [5]; dose 3.2 g/a
  A: barnyardgrass, herbicidal effect (evaluation scale 0-5): 0 (mortality of less than 5% (almost ineffective))
Velvetleaf [6]; dose 3.2 g/a
  I: velvetleaf, herbicidal effect (evaluation scale 0-5): 0 (mortality of less than 5% (almost ineffective))
Common lambsquater [7]; dose 3.2 g/a
  L: common lambsquater, herbicidal effect (evaluation scale 0-5): 1 (mortality of at least 5% and less than 20%)
Giant foxtail [8]; dose 3.2 g/a
  E: giant foxtail, herbicidal effect (evaluation scale 0-5): 0 (mortality of less than 5% (almost ineffective))
Common ragweed [10]; dose 3.2 g/a
  J: common ragweed, herbicidal effect (evaluation scale 0-5): 3 (mortality of at least 40% and less than 70%)
Large crabgrass [11]; dose 3.2 g/a
  D: large crabgrass, herbicidal effect (evaluation scale 0-5): 0 (mortality of less than 5% (almost ineffective))
Wild oat [12]; dose 3.2 g/a
  F: wild oat, herbicidal effect (evaluation scale 0-5): 0 (mortality of less than 5% (almost ineffective))
Redroot pigweed [13]; dose 3.2 g/a
  K: redroot pigweed, herbicidal effect (evaluation scale 0-5): 0 (mortality of less than 5% (almost ineffective))
Posumbu knotweed [14]; dose 3.2 g/a
  M: posumbu knotweed, herbicidal effect (evaluation scale 0-5): 0 (mortality of less than 5% (almost ineffective))
Beadstraw [15]; dose 3.2 g/a
  O: beadstraw, herbicidal effect (evaluation scale 0-5): 0 (mortality of less than 5% (almost ineffective))
Water foxtail [16]; dose 3.2 g/a
  G: water foxtail, herbicidal effect (evaluation scale 0-5): 5 (mortality of 90% or above (nearly complete death))
Italian ryegrass [17]; dose 3.2 g/a
  H: Italian ryegrass, herbicidal effect: 0 (mortality of less than 5% (almost ineffective))
Barnyardgrass [18]; dose 3.2 g/a
  A: barnyardgrass, herbicidal effect: 0 (mortality of less than 5% (almost ineffective))
Velvetleaf [19]; dose 3.2 g/a
  I: velvetleaf, herbicidal effect: 0 (mortality of less than 5% (almost ineffective))
Common lambsquater [20]; dose 3.2 g/a
  L: common lambsquater, herbicidal effect: 3 (mortality of at least 40% and less than 70%)
Giant foxtail [21]; dose 3.2 g/a
  E: giant foxtail, herbicidal effect: 0 (mortality of less than 5% (almost ineffective))
Common chickweed [22]; dose 3.2 g/a
  N: common chickweed, herbicidal effect: 2 (mortality of at least 20% and less than 40%)
Common ragweed [23]; dose 3.2 g/a
  J: common ragweed, herbicidal effect: 2 (mortality of at least 20% and less than 40%)
Large crabgrass [24]; dose 3.2 g/a
  D: large crabgrass, herbicidal effect: 0 (mortality of less than 5% (almost ineffective))
Wild oat [25]; dose 3.2 g/a
  F: wild oat, herbicidal effect: 0 (mortality of less than 5% (almost ineffective))
Redroot pigweed [26]; dose 3.2 g/a
  K: redroot pigweed, herbicidal effect: 0 (mortality of less than 5% (almost ineffective))
Posumbu knotweed [27]; dose 3.2 g/a
  M: posumbu knotweed, herbicidal effect: 0 (mortality of less than 5% (almost ineffective))
Beadstraw [28]; dose 3.2 g/a
  O: beadstraw, herbicidal effect: 0 (mortality of less than 5% (almost ineffective))
Water foxtail [29]; dose 3.2 g/a
  G: water foxtail, herbicidal effect: 5 (mortality of 90% or above (nearly complete death))
Transplanted rice
  a: transplanted rice, effect on crop (evaluation scale 0-5): 0 (mortality of less than 5% (almost ineffective))
Barnyardgrass [32]
  A: barnyardgrass, herbicidal effect (evaluation scale 0-5): 1 (mortality of at least 5% and less than 20%)
Ducksalad [30]
  C: ducksalad, herbicidal effect (evaluation scale 0-5): 4 (mortality of at least 70% and less than 90%)
Bulrush [31]
  B: bulrush, herbicidal effect (evaluation scale 0-5): 5 (mortality of 90% or above (nearly complete death))
